pIC50: −log10 of the molar value. Values after ≈ are worked out from the molar mass of the structure shown. Where two headings read alike, the source gives them in different places.
Columns and labels:
[1] = Cytotoxicity (CC50) in the in vitro viral screen; format: cell-based; conditions: African green monkey, MA-104 cells; listed as Respiratory Syncytial Virus A2; visual
Text: (§1) The results of an exemplary in vitro screen of the activity of AR-12 against various viruses is summarized below.

MA-104 = test: Cytotoxicity (CC50) in the in vitro viral screen; format: cell-based; conditions: listed as Respiratory Syncytial Virus A2; neutral red
Text: as §1

DENV-1 = test: Virus yield reduction assay by qRT-PCR in Vero cells; format: cell-based; conditions: Dengue virus, DENV1, Vero, 48 h, read-out: Antiviral Activity IC50
DENV-2 = test: as above; format: cell-based; conditions: Dengue virus, DENV2, Vero, 48 h, read-out: Antiviral Activity IC50
[2] = long term oral exposures up to 33 weeks; cited from earlier work
[3] = in vivo; cited from earlier work
HIV-1 MDR 769 = test: microbe, parasite or virus in culture; conditions: Human immunodeficiency virus 1, PBMC
HIV-1 isolate NL4-3 = test: microbe, parasite or virus in culture; conditions: Human immunodeficiency virus 1, NL43, PBMC
HIV-1 isolate MDR769 = test: microbe, parasite or virus in culture; conditions: Human immunodeficiency virus 1, PBMC
HIV-1 isolate 1022-48 = test: microbe, parasite or virus in culture; conditions: Human immunodeficiency virus 1, PBMC
HIV-1 isolate 4736_4 = test: microbe, parasite or virus in culture; conditions: Human immunodeficiency virus 1, PBMC

SMILES: NCC(=O)Nc1ccc(-n2nc(C(F)(F)F)cc2-c2ccc3c(ccc4ccccc43)c2)cc1 [AR-12, 2-amino-N-(4-(5-(phenanthren-2-yl)-3-(trifluoromethyl)-1H-pyrazol-1-yl)phenyl)acetamide]
- CC50 [1]: 3.2 µg/mL (≈ 6.95 µM)
- CC50 (neutral red) (MA-104): 3.2 (visual), 3.2
- pIC50 (DENV-1): 6.19
- pIC50 (DENV-2): 6.10
- CC50 (neutral red) (Vero; listed as Pichinde Virus An 4763, neutral red): 2.8 µg/mL (≈ 6.08 µM)
- CC50 (visual) (Vero; listed as Pichinde Virus An 4763): 3.2 µg/mL (≈ 6.95 µM)
- CC50 (visual) (Vero; listed as Yellow Fever Virus 17D): 2.8 µg/mL (≈ 6.08 µM)
- safety profile [2]: acceptable safety profile
- accumulation in tissues [3]: appreciable accumulation in tissues
- blood brain barrier penetration [3]: rapid blood brain barrier penetration
- pIC50 (HIV-1 MDR 769): 6.51
- IC90 (HIV-1 isolate NL4-3): 749 nM
- IC90 (HIV-1 isolate NL4-3; read-out: IC50): 2170 nM
- IC90 (HIV-1 isolate MDR769): 848 nM
- IC90 (HIV-1 isolate MDR769; read-out: IC50): 3820 nM
- IC90 (HIV-1 isolate 1022-48): 489 nM
- IC90 (HIV-1 isolate 1022-48; read-out: IC50): 3680 nM
- IC90 (HIV-1 isolate 4736_4): 762 nM
- IC90 (HIV-1 isolate 4736_4; read-out: IC50): 2240 nM

Reference: patent publication US20160213647A1, “COMPOSITIONS AND METHODS FOR INHIBITING VIRAL INFECTION” (priority 2015, published 2016)
